The text below walks through data of patent publication US12617757B2, “Compounds and modules for inhibition of pre-miR-21 and their use in treatment of certain cancers” (University of Florida Research Foundation, Incorporated, priority 2019, dated 2026).

Structures are written as SMILES.

For one test, the system named is pre-miR-21 WT RNA. Nature of the test: In vitro Dicer processing of pre-miR-21 WT. The test is classed as biochemical. An excerpt: In vitro Dicer processing. […] Cleavage products were resolved on a denaturing 15% polyacrylamide gel, which was imaged using a Molecular Dynamics Typhoon phosphorimager and quantified with Bio-Rad's QuantityOne software, normalizing to full length RNA.

The subject of test [1] is proteome of MDA-MB-231 cells. Nature of the test: Global proteomics profiling (LC-MS/MS) of MDA-MB-231 cells. The test is classed as cell-based, human. The conditions noted are these: 50 nM, versus all proteins. As for the experimental part: Global proteomics profiling using LC-MS/MS. The MDA-MB-231 cells treated with vehicle (DMSO) or 5 (50 nM) were washed with PBS, harvested by scraping, centrifuged at 1500×g for five minutes at 4° C. and then resuspended in PBS. Cells were lysed by sonication and lysate protein concentrations were determined using a Bradford assay (Bio-Rad). Protein samples (40 μg) were denatured with 6 M urea in 50 mM NH4HCO3, reduced with 10 mM tris(2-carboxyethyl)phosphine hydrochloride (TCEP) for 30 minutes, and then alkylated with 25 mM iodoacetamide for 30 minutes in the dark. Samples were diluted to 2 M urea with 50 mM NH4HCO3, and digested with trypsin (2 μL of 0.5 μg/μL) in the presence of 1 mM CaCl2) for 12 hours at 37° C. […] Samples were analyzed by LC-MS/MS (see below) and the MS data was processed with MaxQuant and Proteome Discoverer (see below).
LC-MS/MS analysis: Peptides were resuspended in water with 0.1% formic acid (FA) and analyzed using an EASY-nLC 1200 nano-UHPLC coupled to Q Exactive HF-X Quadrupole-Orbitrap mass spectrometer (Thermo Scientific). […]
MaxQuant analysis: The MS data was analyzed with MaxQuant (V1.6.1.0)^27 and searched against the human proteome (Uniprot) and a common list of contaminants (included in MaxQuant). […] The minimum peptide length was set to 6 amino acids and peptide re-quantification and label-free quantification (MaxLFQ) were enabled. […]

Test [2] has as its target T1, RNase L (Homo sapiens, UniProt Q05823).
T1 sequence (Q05823 1-741): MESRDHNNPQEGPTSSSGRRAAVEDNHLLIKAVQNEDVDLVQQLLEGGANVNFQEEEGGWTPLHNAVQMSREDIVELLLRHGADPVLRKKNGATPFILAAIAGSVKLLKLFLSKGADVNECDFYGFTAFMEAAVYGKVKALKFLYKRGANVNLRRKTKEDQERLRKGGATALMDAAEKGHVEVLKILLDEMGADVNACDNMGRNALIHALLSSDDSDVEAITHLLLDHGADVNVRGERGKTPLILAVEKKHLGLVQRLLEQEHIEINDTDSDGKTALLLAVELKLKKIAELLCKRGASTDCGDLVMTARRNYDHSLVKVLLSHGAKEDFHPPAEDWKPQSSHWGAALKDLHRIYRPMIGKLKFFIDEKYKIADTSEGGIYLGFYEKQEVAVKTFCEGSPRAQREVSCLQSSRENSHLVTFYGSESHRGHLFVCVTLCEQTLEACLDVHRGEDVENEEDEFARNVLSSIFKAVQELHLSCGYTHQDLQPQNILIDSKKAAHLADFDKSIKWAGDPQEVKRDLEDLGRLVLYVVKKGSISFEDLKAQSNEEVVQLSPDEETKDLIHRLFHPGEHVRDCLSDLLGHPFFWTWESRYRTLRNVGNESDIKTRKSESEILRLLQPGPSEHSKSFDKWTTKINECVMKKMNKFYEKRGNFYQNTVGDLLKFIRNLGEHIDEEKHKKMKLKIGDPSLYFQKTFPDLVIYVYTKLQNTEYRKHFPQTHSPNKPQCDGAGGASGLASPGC
Briefly: Co-immunoprecipitation of RNase L from treated cells. The test is classed as cell-based. The arrangement: endogenous in cells; host or cells: MDA-MB-231.

For test [3], the target named is T1, RNase L. Briefly: In vitro RNase L oligomerization. The test is classed as biochemical. The arrangement: GST; made in house. As for the experimental part: In Vitro RNase L Oligomerization. An aliquot of RNase L (3 μM) in 1×RNase L Buffer was supplemented with 10 mM MgCl2, fresh 7 mM β-mercaptoethanol, and 50 μM of ATP. RNase L oligomerization was performed as previously described^13 using dilutions of 2′-5′ A4 or compounds (2 or 5) prepared in 1×RNase L Buffer. A Western blot (described below) was run to resolve monomeric and oligomeric RNase L populations using RNase L primary antibody (1:5000 dilution; Cell Signaling Technology: D4B4J) overnight at 4° C. in 1×TBST containing 5% nonfat dry milk and 1:10000 anti-rabbit IgG horseradish peroxidase secondary antibody conjugate (Cell Signaling Technology: 7074S) in 1×TBST containing 5% nonfat dry milk for 2 h at room temperature.

Consider `CCCN(CC(=O)N(CCC)CC(=O)N(CCC)CC(=O)N(CC(N)=O)Cc1cn(CCCNC(=O)CCCOc2ccc(-c3nc4cc(-c5ccc(N6CCN(C)CC6)cc5)ccc4[nH]3)cc2)nn1)C(=O)CNCc1cn(CCCNC(=O)CCCOc2ccc(-c3nc4cc(-c5ccc(N6CCN(C)CC6)cc5)ccc4[nH]3)cc2)nn1` [Compound 2], for which the “inhibition of / protection from Dicer processing” value in the test with pre-miR-21 WT RNA is “Protection with compound is observed at U23 (boxes marked with arrows) and U26 and U27”.

In the case of `CCCN(CC(=O)N(CCC)CC(=O)N(CCC)CC(=O)N(CC(=O)NCCOCCOCCOCCOc1ccc(C=C2SC(Nc3ccccc3)=C(C(=O)OCC)C2=O)cc1O)Cc1cn(CCCNC(=O)CCCOc2ccc(-c3nc4cc(-c5ccc(N6CCN(C)CC6)cc5)ccc4[nH]3)cc2)nn1)C(=O)CN(Cc1cn(CCCNC(=O)CCCOc2ccc(-c3nc4cc(-c5ccc(N6CCN(C)CC6)cc5)ccc4[nH]3)cc2)nn1)C(C)=O` [Compound 5], the “median log fold-change of predicted downstream protein targets of miR-21” value in test [1] is recorded as “significantly upregulated relative to all proteins”. Besides, the “pre-miR-21 in the enriched fraction of RNase L co-immunoprecipitation” value at RNase L [2] is recorded as “increased levels of pre-miR-21 in the enriched fraction”. Besides, on RNase L [2] (200 nM), the “enrichment of pre-miR-210 in RNase L co-immunoprecipitation” value was “no enrichment of pre-miR-210” and the “increase in pre-miR-21 in RNase L co-immunoprecipitation” value was about 3 fold. The “oligomerization of RNase L” value on RNase L [3] is on record as “oligomerization of RNase L”.
